Measurements as given in patent US20020019527A1 (priority 2000, published 2002).
Where a name gives a salt, the structure may show the parent alone.

Target: T1, Farnesyltransferase (FTase) (Bos taurus, UniProt P29702+P49355)
T1 construct: precipitation from a beef brain homogenate; from tissue; host or cells: bovine brain
Test: Farnesyltransferase inhibition (scintillation proximity assay, [3H]-FPP / biotin-K-ras peptide)
Type: biochemical, bovine
Conditions: compound at 10^−6 M; bovine FTase, 37° C., 30 minutes
Experimental: Farnesyltransferase (FTase) or geranylgeranyltransferase I (GGTase I) fractions were isolated from bovine brains and purified by a series of methods which separate FTase from GGTase I and GGTase I from GGTase II. The methods involved a partial purification of all three enzymes by precipitation from a beef brain homogenate with 30% to 50% saturated […] followed by chromatography on DEAE Sepharose. […] The catalytic purity of each enzyme was assayed separately with substrate acceptor proteins specific for that enzyme. After quickly freezing in liquid nitrogen, the various prenyl transferases were stored at −80° C.
The quenched reactions stood for 1 hour before analysis in a Packard TopCount scintillation counter. Purified compounds were dissolved in 100% ethanol and diluted 10-fold into the assay.

T1 sequence (P49355 whole entry, one chain of several): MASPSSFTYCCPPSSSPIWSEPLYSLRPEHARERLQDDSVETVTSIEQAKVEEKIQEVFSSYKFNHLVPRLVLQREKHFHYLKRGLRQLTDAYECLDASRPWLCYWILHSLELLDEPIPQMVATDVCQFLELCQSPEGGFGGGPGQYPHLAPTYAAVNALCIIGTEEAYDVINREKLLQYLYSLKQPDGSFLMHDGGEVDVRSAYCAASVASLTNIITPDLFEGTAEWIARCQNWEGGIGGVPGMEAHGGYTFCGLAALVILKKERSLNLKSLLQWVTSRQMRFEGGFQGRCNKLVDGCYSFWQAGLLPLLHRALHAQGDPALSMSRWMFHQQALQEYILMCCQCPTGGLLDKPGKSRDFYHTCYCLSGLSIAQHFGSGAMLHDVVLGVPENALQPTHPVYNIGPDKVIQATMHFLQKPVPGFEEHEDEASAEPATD

Row | Compound | inhibition at 1 µM [%] | % Inhibition at 10^−6M [%]
1 | Cn1cncc1C(NCc1ccc(Cl)cc1)c1ccc(C#N)c(-c2cccc3ccccc23)c1 (centres unmarked) [Example 42, 4-(((4-chlorobenzyl)amino)(1-methyl-1H-imidazol-5-yl)methyl)-2-(1-naphthyl)benzonitrile] | 100 | –
2 | Cn1cncc1C(NCc1ccc(Cl)c(Cl)c1)c1ccc(C#N)c(-c2cccc3ccccc23)c1 (centres unmarked) [Example 47, 4-(((3,4-dichlorobenzyl)amino)(1-methyl-1H-imidazol-5-yl)methyl)-2-(1-naphthyl)benzonitrile] | 100 | –
3 | CNC(=O)c1ccc(CNC(c2ccc(C#N)c(-c3cccc4ccccc34)c2)c2cncn2C)cc1 (centres unmarked) [Example 48, 4-((((4-cyano-3-(1-naphthyl)phenyl)(1-methyl-1H-imidazol-5-yl)methyl)amino)methyl)-N-methylbenzamide dihydrochloride] | 100 | –
4 | CCOC(=O)N1CCC(NC(c2ccc(C#N)c(-c3cccc4ccccc34)c2)c2cncn2C)CC1 (centres unmarked) [Example 50, ethyl 4-(((4-cyano-3-(1-naphthyl)phenyl)(1-methyl-1H-imidazol-5-yl)methyl)amino)-1-piperidinecarboxylate dihydrochloride] | 100 | –
5 | COC(=O)c1ccc(CNC(c2ccc(C#N)c(-c3cccc4ccccc34)c2)c2cncn2C)nc1 (centres unmarked) [Example 52, methyl 6-((((4-cyano-3-(1-naphthyl)phenyl)(1-methyl-1H-imidazol-5-yl)methyl)amino)methyl)nicotinate trihydrochloride] | 100 | –
6 | CC(=O)Nc1ccc(CNC(c2ccc(C#N)c(-c3cccc4ccccc34)c2)c2cncn2C)cc1 (centres unmarked) [Example 53, N-(4-((((4-cyano-3-(1-naphthyl)phenyl)(1-methyl-1H-imidazol-5-yl)methyl)amino)methyl)phenyl)acetamide dihydrochloride] | 100 | –
7 | Cn1cncc1C(NC1CCN(C(=O)OCc2ccccc2)CC1)c1ccc(C#N)c(-c2cccc3ccccc23)c1 (centres unmarked) [Example 54, benzyl 4-(((4-cyano-3-(1-naphthyl)phenyl)(1-methyl-1H-imidazol-5-yl)methyl)amino)-1-piperidinecarboxylate dihydrochloride] | 100 | –
8 | Cn1cncc1C(NC1CCN(Cc2ccccc2)CC1)c1ccc(C#N)c(-c2cccc3ccccc23)c1 (centres unmarked) [Example 55, 4-(((1-benzyl-4-piperidinyl)amino)(1-methyl-1H-imidazol-5-yl)methyl)-2-(1-naphthyl)benzonitrile trihydrochloride] | 100 | –
9 | Cn1cncc1C(NC1CCN(C(=O)OC(C)(C)C)CC1)c1ccc(C#N)c(-c2cccc3ccccc23)c1 (centres unmarked) [Example 56, tert-butyl 4-(((4-cyano-3-(1-naphthyl)phenyl)(1-methyl-1H-imidazol-5-yl)methyl)amino)-1-piperidinecarboxylate] | 100 | –
10 | Cn1cncc1C(NC1CCN(C(=O)c2ccccc2)CC1)c1ccc(C#N)c(-c2cccc3ccccc23)c1 (centres unmarked) [Example 57, 4-(((1-benzoyl4-piperidinyl)amino)(1-methyl-1H-imidazol-5-yl)methyl)-2-(1-naphthyl)benzonitrile dihydrochloride] | 100 | –
11 | Cn1cncc1C(NCc1ccc(C(N)=O)cc1)c1ccc(C#N)c(-c2cccc3ccccc23)c1 (centres unmarked) [Example 58, 4-((((4-cyano-3-(1-naphthyl)phenyl)(1-methyl-1H-imidazol-5-yl)methyl)amino)methyl)benzamide dihydrochloride] | 100 | –
12 | Cl.Cn1cncc1C(OCc1ccc([N+](=O)[O-])cc1)c1ccc(C#N)c(-c2cccc3ccccc23)c1 (centres unmarked) [Example 59, 4-((1-methyl-1H-imidazol-5-yl)((4-nitrobenzyl)oxy)methyl)-2-(1,1-naphthyl)benzonitrile hydrochloride] | – | 100
13 | Cn1cncc1C(OCc1ccc(C#N)cc1)c1ccc(C#N)c(I)c1 (centres unmarked) [Example 60, 4-(((4-cyanobenzyl)oxy)(1-methyl-1H-imidazol-5-yl)methyl)-2-iodobenzonitrile hydrochloride] | 96 | –
14 | Cn1cncc1C(SCc1ccc(C#N)cc1)c1ccc(C#N)c(-c2cccc3ccccc23)c1 (centres unmarked) [Example 62, 4-(((4-cyanobenzyl)sulfanyl)(1-methyl-1H-imidazol-5-yl)methyl)-2-(1-naphthyl)benzonitrile hydrochloride] | 100 | –
15 | Cn1cncc1C(OCc1ccc(C(=O)O)cc1)c1ccc(C#N)c(-c2cccc3ccccc23)c1 (centres unmarked) [Example 69, lithium 4-(((4-cyano-3-(1-naphthyl)phenyl)(1-methyl-1H-imidazol-5-yl)methoxy)methyl)benzoate] | 100 | –
16 | Cn1cncc1C(c1ccc(C#N)c(-c2cccc3ccccc23)c1)S(=O)(=O)Cc1ccc(C#N)cc1 (centres unmarked) [Example 71, 4-(((4-cyanobenzyl)sulfonyl)(1-methyl-1H-imidazol-5-yl)methyl)-2-(1-naphthyl)benzonitrile hydrochloride] | 100 | –

Now from value to compound, other results behind:

Row | inhibition at 1 µM [%] | Compound | % Inhibition at 10^−6M [%]
17 | 100 | Cn1cncc1C(OCc1ccc(C#N)cc1)c1ccc(C#N)c(-c2cccc3ncccc23)c1 (centres unmarked) [Example 43, 4-(((4-cyanobenzyl)oxy)(1-methyl-1H-imidazol-5-yl)methyl)-2-(5-quinolinyl)benzonitrile dihydrochloride] | –
18 | 100 | Cn1cncc1C(OCc1ccc(C#N)cc1)c1ccc(C#N)c(-c2cccc3cnccc23)c1 (centres unmarked) [Example 44, 4-(((4-cyanobenzyl)oxy)(1-methyl-1H-imidazol-5-yl)methyl)-2-(5-isoquinolinyl)benzonitrile] | –
19 | 100 | N#Cc1ccc(CN(Cc2ccc(C#N)c(-c3cccc4ccccc34)c2)Cc2cnc[nH]2)cc1 [Example 45, 4-(((4-cyanobenzyl)(1H-imidazol-5-ylmethyl)amino)methyl)-2-(1-naphthyl)benzonitrile dihydrochloride] | –
20 | 100 | N#Cc1ccc(COC(c2ccc(C#N)c(-c3cccc4ccccc34)c2)c2cnc[nH]2)cc1 (centres unmarked) [Example 46, 4-(((4-cyanobenzyl)oxy)(1H-imidazol-5-yl)methyl)-2-(1-naphthyl)benzonitrile hydrochloride] | –
21 | 62 | N#Cc1ccc(COC(c2ccc(C#N)c(-c3cccc4ccccc34)c2)c2cn(C(c3ccccc3)(c3ccccc3)c3ccccc3)cn2)cc1 (centres unmarked) [Example 49, 4-(((4-cyanobenzyl)oxy)(1-trityl-1H-imidazol-4-yl)methyl)-2-(1-naphthyl)benzonitrile] | –
22 | 100 | Cn1cncc1C(NCc1ccc(C#N)cn1)c1ccc(C#N)c(-c2cccc3ccccc23)c1 (centres unmarked) [Example 51, 6-((((4-cyano-3-(1-naphthyl)phenyl)(1-methyl-1H-imidazol-5-yl)methyl)amino)methyl)nicotinonitrile trihydrochloride] | –
23 | 100 | Cn1cncc1C(OCc1ccc(C#N)c(Cl)c1)c1ccc(C#N)c(-c2cccc3ccccc23)c1 (centres unmarked) [Example 61, 4-(((3-chloro-4-cyanobenzyl)oxy)(1-methyl-1H-imidazol-5-yl)methyl)-2-(1-naphthyl)benzonitrile hydrochloride] | –
24 | 100 | Cn1cncc1C(OCc1ccc(C#N)c(I)c1)c1ccc(C#N)c(-c2cccc3ccccc23)c1 (centres unmarked) [Example 63, 4-(((4-cyano-3-iodobenzyl)oxy)(1-methyl-1H-imidazol-5-yl)methyl)-2-(1-naphthyl)benzonitrile hydrochloride] | –
25 | 100 | COC(=O)c1ccc(COC(c2ccc(C#N)c(-c3cccc4ccccc34)c2)c2cncn2C)cc1 (centres unmarked) [Example 64, methyl 4-(((4-cyano-3-(1-naphthyl)phenyl)(1-methyl-1H-imidazol-5-yl)methoxy)methyl)benzoate hydrochloride] | –
26 | 100 | Cn1cncc1C(OCc1ccc(C(F)(F)F)cc1)c1ccc(C#N)c(-c2cccc3ccccc23)c1 (centres unmarked) [Example 65, 4-((1-methyl-1H-imidazol-5-yl)((4-(trifluoromethyl)benzyl)oxy)methyl)-2-(1-naphthyl)benzonitrile hydrochloride] | –
27 | 100 | Cn1cncc1C(OCc1ccc(Cl)cc1)c1ccc(C#N)c(-c2cccc3ccccc23)c1 (centres unmarked) [Example 66, 4-(((4-chlorobenzyl)oxy)(1-methyl-1H-imidazol-5-yl)methyl)-2-(1-naphthyl)benzonitrile hydrochloride] | –
28 | 100 | Cn1cncc1C(OCc1ccc(OC(F)(F)F)cc1)c1ccc(C#N)c(-c2cccc3ccccc23)c1 (centres unmarked) [Example 67, 4-((1-methyl-1H-imidazol-5-yl)((4-(trifluoromethoxy)benzyl)oxy)methyl)-2-(1-naphthyl)benzonitrile hydrochloride] | –
29 | 100 | Cn1cncc1C(OCc1cccc(C(F)(F)F)c1)c1ccc(C#N)c(-c2cccc3ccccc23)c1 (centres unmarked) [Example 68, 4-((1-methyl-1H-imidazol-5-yl)((3-(trifluoromethyl)benzyl)oxy)methyl)-2-(1-naphthyl)benzonitrile hydrochloride] | –
30 | 100 | CN(C)C(=O)c1ccc(COC(c2ccc(C#N)c(-c3cccc4ccccc34)c2)c2cncn2C)cc1 (centres unmarked) [Example 70, 4-(((4-cyano-3-(1-naphthyl)phenyl)(1-methyl-1H-imidazol-5-yl)methoxy)methyl)-N,N-dimethylbenzamide hydrochloride] | –
31 | 100 | Cn1cncc1C(OCc1ccc(Cl)cc1Cl)c1ccc(C#N)c(-c2cccc3ccccc23)c1 (centres unmarked) [Example 72, 4-(((2,4-dichlorobenzyl)oxy)(1-methyl-1H-imidazol-5-yl)methyl)-2-(1-naphthyl)benzonitrile hydrochloride] | –
32 | 100 | Cn1cncc1C(OCc1ccc(S(C)(=O)=O)cc1)c1ccc(C#N)c(-c2cccc3ccccc23)c1 (centres unmarked) [Example 73, 4-((1-methyl-1H-imidazol-5-yl)((4-(methylsulfonyl)benzyl)oxy)methyl)-2-(1-naphthyl)benzonitrile hydrochloride] | –
